How the values were obtained:
[1] = system: Prostate cancer cells (DU-145); assay: Cell proliferation assay (cell count), DU-145; type: cell-based, human; details: for potentiation of the anti-proliferative effect of lycopene: DU-145, 50 μM of the compound with 1 μM lycopene (FIG. 3)
Method: (§1) Culture media and antibiotics were from Gibco (Grand Island, N.Y., USA). Fetal calf serum was from PAA Labor (Linz, Austria), Human prostate carcinoma, androgen insensitive, cell lines DU-145 and PC-3, colon carcinoma cell line Caco-2, hepatoma cell line HepG2, and rat aortic smooth muscle cell line A7r5 were from American Type Culture Collection (Rockville, Md., USA). DU-146 cells were grown in minimum essential medium (EM), PC-3 cells in F-12K medium, both containing antibiotics and 10% fetal calf serum (FCS). Caco-2 cells were grown in MEM containing 20% FCS. HepG2 cells were grown in MEM containing 10% FCS, and A7r5 cells were grown in DMEM containing 10% FCS. Cell proliferation was assayed using two methods, cell count and thymidine incorporation: Cell count. Cells were seeded into 6-multiwell plates (20,000 cells/well). When cells reached approximately 50% confluence, the indicated concentrations of the compounds were added. THF was added to control cells to account for the effect of the solvent in the compound solutions. Cells were washed, trypsinized, resuspended and counted in duplicate at the indicated times by trypan blue dye exclusion with a hemocytometer. […] The values in Table 1 are expressed as percent of inhibition of proliferation as compared to proliferation of control cells treated with solvent alone. Prostate cancer cells (DU-145), hepatoma cells (HepG2), colon carcinoma cells (Caco-2) and rat aortic smooth muscle cells (A7r5) were treated with different concentrations of lycopene as indicated and 50 μM alpha-tocopherol for 24 hours. […] Proliferation was assessed as indicated in the Materials and Methods. Data are means±SD of five experiments in duplicate.

hepatoma cells (HepG2) = assay: Cell proliferation assay (thymidine incorporation), HepG2; type: cell-based, human; details: 50 μM alpha-tocopherol, lycopene 0 μM, 24 hours, vs solvent control
Method: (§2) Culture media and antibiotics were from Gibco (Grand Island, N.Y., USA). Fetal calf serum was from PAA Labor (Linz, Austria), Human prostate carcinoma, androgen insensitive, cell lines DU-145 and PC-3, colon carcinoma cell line Caco-2, hepatoma cell line HepG2, and rat aortic smooth muscle cell line A7r5 were from American Type Culture Collection (Rockville, Md., USA). DU-146 cells were grown in minimum essential medium (EM), PC-3 cells in F-12K medium, both containing antibiotics and 10% fetal calf serum (FCS). Caco-2 cells were grown in MEM containing 20% FCS. HepG2 cells were grown in MEM containing 10% FCS, and A7r5 cells were grown in DMEM containing 10% FCS.
(§3) Cell proliferation was assayed using two methods, cell count and thymidine incorporation:
(§4) Thymidine incorporation. Colon carcinoma cells (Caco-2) and hepatoma cells (HepG2) seeded into 6 multiwell plates (30,000 cells/well) after treatment were pulsed with [^3H] thymidine (0.5 μCi per well) for two hours. […] The radioactivity incorporated into the acid-insoluble material was determined in a liquid scintillation analyzer.
(§5) The values in Table 1 are expressed as percent of inhibition of proliferation as compared to proliferation of control cells treated with solvent alone. […] Proliferation was assessed as indicated in the Materials and Methods. […]

[2] = system: colon carcinoma cells (Caco-2); assay: Cell proliferation assay (thymidine incorporation), Caco-2; type: cell-based, human; details: 50 μM alpha-tocopherol, lycopene 0 μM, 24 hours, vs solvent control
Method: as §2, §3, §4, §5

[3] = system: rat aortic smooth muscle cells (A7r5); assay: Cell proliferation assay (cell count), A7r5; type: cell-based; details: 50 μM alpha-tocopherol, lycopene 0 μM, 24 hours, vs solvent control
Method: as §1, with “alone.” for “alone. Prostate cancer cells (DU-145), hepatoma cells (HepG2), colon carcinoma cells (Caco-2) and rat aortic smooth muscle cells (A7r5) were treated with different concentrations of lycopene as indicated and 50 μM alpha-tocopherol for 24 hours.”, “Data are means±SD of five experiments in duplicate.” left out

[4] = system: prostate carcinoma cell proliferation; details: in vitro studies, background; cited from earlier work

With `Cc1c(C)c2c(c(C)c1O)CCC(C)(CCCC(C)CCCC(C)CCCC(C)C)O2` (racemic) [Alpha-Tocopherol, DL-alpha-tocopherol] the “percent of inhibition of proliferation” value ([1]; DU 145, 50 μM alpha-tocopherol, lycopene 0 μM, 24 hours, vs solvent control) was 40 ± 6%, the “potentiation of the anti-proliferative effect of lycopene” value (from here on “potentiation”) [1] was “potentiates the anti-proliferative effect of lycopene” and the “percent of inhibition of proliferation” value (hepatoma cells (HepG2)) was 5 ± 1%. For the same compound, the “percent of inhibition of proliferation” value [2] was 25 ± 3% and the “percent of inhibition of proliferation” value [3] was 40 ± 5%.
With `Cc1cc(O)c(C)c2c1O[C@](C)(CCC[C@H](C)CCC[C@H](C)CCCC(C)C)CC2` (racemic) [β-tocopherol, DL-β-tocopherol] the “potentiation” value [1] was “this effect is specific to alpha-tocopherol as compared to other anti-oxidants”.
With `O=C1O[C@H]([C@@H](O)CO)C(O)=C1O` [ascorbic acid, L-ascorbic acid] the “potentiation” value [1] was “this effect is specific to alpha-tocopherol as compared to other anti-oxidants”.
For `CC(C)=CCC/C(C)=C/C=C/C(C)=C/C=C/C(C)=C/C=C/C=C(C)/C=C/C=C(C)/C=C/C=C(\C)CCC=C(C)C` [lycopene], the “concentrations with inhibitory effect on prostate carcinoma cell proliferation” value [4] is given as no less than 50 µM.
For `CC(C)(Sc1cc(C(C)(C)C)c(O)c(C(C)(C)C)c1)Sc1cc(C(C)(C)C)c(O)c(C(C)(C)C)c1` [probucol], the “potentiation” value [1] was “this effect is specific to alpha-tocopherol as compared to other anti-oxidants”.

Source: patent US6350776B1, “Method of treating proliferative disease with lycopene and alpha-tocopherol” (priority 1999, dated 2002)
